This is an account of results in patent US20240344241A1, “PROTEINACEOUS MOLECULES AND USES THEREFOR” (THE UNIVERSITY OF QUEENSLAND, priority 2021, published 2024).

One assay deals with T1, Human β-FXIIa (Homo sapiens, UniProt P00748).
T1 construct: Human β-FXIIa was obtained from Molecular Innovations, together with human FXa, human FXIa, human α-thrombin, and human plasma kallikrein; purchased Molecular Innovations; host or cells: purified from human plasma
Briefly: FXIIa competitive inhibition assay, fluorescent substrate Boc-QGR-MCA. It counts as biochemical. The note with it: 0.5 nM FXIIa, 50 μM Boc-QGR-MCA; read-out: Ki for FXIIa, fluorescent substrate. The procedure, abridged:
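Human β-FXIIa (10 nM) preincubated to equilibrium with serially diluted inhibitors at room temperature in Tris pH 8.0 with NaCl, CaCl2 and Triton X-100. Activity followed with 100 μM Ac-QRFR-pNA (KM 162 μM) at 405 nm, or for later variants 0.5 nM enzyme with 50 μM Boc-QGR-MCA (KM 187 μM) by fluorescence. Ki from Morrison fits.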

Assay [1] has as its system human blood. Nature of the assay: INTEM assay of blood samples from the ex vivo ECMO model. The note with it: ECMO circuit, single dose 20 μM. The protocol: (§1) The duration of effect for each treatment was also monitored by taking blood samples from the circuit over time and performing clotting assays (refer to FIG. 18). In ACT assays, a clotting time of more than 200 s was maintained for cyclic MCoFx7 over the course of the experiment (>300 s from 0.5 h-6 h).
(§2) Ex vivo ECMO circuits (Permanent Life Support [PLS] System, Maquet C P, Rastatt, Germany) consisted of a Quadrox D Oxygenator and ROTAFLOW centrifugal pump, both incorporated into a tubing set, with a tip-to-tip BIOLINE (albumin and heparin) coating. Initially, the PLS system was primed with Plasma-Lyte 148 and heated to 37.8° C. […] Inlet and outlet pressures between the membrane oxygenator were monitored using a silicone-based pressure transducer (Omega Engineering, Norwalk, CT, USA) and were recorded as the delta oxygenator pressure (P). […]
(§3) Activated clotting time (ACT) was measured in fresh whole blood using celite tubes with the Hemochron 401 coagulation analyzer (Soma Technology, Bloomfield, CT, USA). Whole blood clot formation was recorded by ROTEM® Thromboelastometry (Haemoview Diagnostics, Brisbane, Australia) using INTEM (contact factor-initiated coagulation) and HEPTEM (contact factor-initiated coagulation with heparinase) activating reagents according to the manufacturer's instructions.

Assay [2] relates to human blood. Nature of the assay: ACT assay of blood samples from the ex vivo ECMO model. To be noted: ECMO circuit, single dose 20 μM. The protocol:
as §1, §2, §3

The subject of assay [3] is human blood. Nature of the assay: HEPTEM assay of blood samples from the ex vivo ECMO model. The note with it: ECMO circuit, heparinase added. The protocol: as §1, §2, §3
A further assay deals with human whole blood. Nature of the assay: Activated clotting time (ACT) in human whole blood. The protocol:
(§4) The anticoagulant activity of cyclic MCoFx7 was determined in human whole blood using two assays: activated clotting time (ACT) and rotational thromboelastometry (ROTEM). In ACT assays, the clotting time (y-axis) was increased in a dose-dependent manner from the control (124 s), reaching 223 s with 20 μM MCoFx7. […] Anticoagulant activity was verified by thromboelastometry (TEM) that was measured after activation of the intrinsic pathway (INTEM) (refer to FIG. 16). […] By comparison, a single concentration of cyclic [A25P]MCoFx7 (10 μM) produced a clotting time of 500 s, similar to cyclic MCoFx7 at 10 μM (469 s).
as §3

The test system of assay [4] is human whole blood, intrinsic pathway (INTEM). Nature of the assay: Rotational thromboelastometry INTEM in human whole blood. The protocol: as §4, §3

Molecules are shown by their SMILES. Bridge positions count the residues as written; N and C are the ends. Peptide text beside a SMILES is read from it.

T1 sequence (P00748 373-615 limits assumed, other chains not shown): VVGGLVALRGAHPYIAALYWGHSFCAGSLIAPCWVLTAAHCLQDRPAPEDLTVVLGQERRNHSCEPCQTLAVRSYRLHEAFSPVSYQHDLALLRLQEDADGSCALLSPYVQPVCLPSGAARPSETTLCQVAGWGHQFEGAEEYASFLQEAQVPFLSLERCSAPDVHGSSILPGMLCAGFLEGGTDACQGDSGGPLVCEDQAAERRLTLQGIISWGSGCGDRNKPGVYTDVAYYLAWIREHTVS

For `CC[C@H](C)[C@@H]1NC(=O)CNC(=O)CNC(=O)[C@H](CC(=O)O)NC(=O)[C@H](CO)NC(=O)CNC(=O)[C@H](CO)NC(=O)CNC(=O)[C@@H]2CSSC[C@@H]3NC(=O)[C@H](CC(=O)O)NC(=O)[C@H](CO)NC(=O)[C@H](CC(=O)O)NC(=O)[C@H](CCCNC(=N)N)NC(=O)[C@H](CCCNC(=N)N)NC(=O)[C@@H]4CSSC[C@H](NC(=O)[C@H]([C@@H](C)CC)NC(=O)[C@H](CSSC[C@H](NC1=O)C(=O)N1CCC[C@H]1C(=O)N[C@@H](CCCNC(=N)N)C(=O)N[C@@H]([C@@H](C)CC)C(=O)NCC(=O)N[C@@H](CCCNC(=N)N)C(=O)N[C@@H](CC(C)C)C(=O)N4)NC(=O)[C@H](C)NC(=O)CNC(=O)[C@@H]1CCCN1C3=O)C(=O)N[C@@H](CCCNC(=N)N)C(=O)N[C@@H](C)C(=O)N[C@@H]([C@@H](C)O)C(=O)N[C@@H](CCCNC(=N)N)C(=O)N[C@@H](Cc1ccccc1)C(=O)N2` [Cyclic MCoFx7] (cyclo(ACICRATRFCGSGSDGGICPRIGRLCRRDSDCPG); disulfide 2-19, 4-26, 10-32), the Ki on Human β-FXIIa was 0.064 nM. The “INTEM anticoagulant activity, duration” value with human blood [1] was “anticoagulant activity was maintained for 6 h”. Moreover, the ACT clotting time with human blood [2] (from 0.5 h-6 h) was greater than 300 s; with human whole blood (20 μM, human whole blood) it was 223 s. The “ACT clotting time maintained over the course of the experiment” value with human blood [2] is on record as “more than 200 s”. Also, the HEPTEM anticoagulant activity entry in the assay with human blood [3] is reported as “independent of heparin”. In addition, the “ACT clotting time versus therapeutic range (180-220 s)” value with human whole blood (10 μM or 20 μM) is on record as “within the therapeutic range”. Besides, the INTEM clotting time in assay [4] (10 μM) was found to be 469 s; in assay [4] (20 μM), 521 s.

For orientation: Ki means the dissociation constant of the complex between target and ligand, obtained from inhibition or displacement.
